Target: T1, GCase (GBA) in human fibroblast cell line GM10915 harboring the L444P GBA mutation (Homo sapiens, UniProt P04062, L483P)
T1 construct: Human fibroblast cell line GM10915 harboring the L444P GBA mutation; host or cells: GM10915 human fibroblasts
T1 sequence (P04062 40-536 L483P): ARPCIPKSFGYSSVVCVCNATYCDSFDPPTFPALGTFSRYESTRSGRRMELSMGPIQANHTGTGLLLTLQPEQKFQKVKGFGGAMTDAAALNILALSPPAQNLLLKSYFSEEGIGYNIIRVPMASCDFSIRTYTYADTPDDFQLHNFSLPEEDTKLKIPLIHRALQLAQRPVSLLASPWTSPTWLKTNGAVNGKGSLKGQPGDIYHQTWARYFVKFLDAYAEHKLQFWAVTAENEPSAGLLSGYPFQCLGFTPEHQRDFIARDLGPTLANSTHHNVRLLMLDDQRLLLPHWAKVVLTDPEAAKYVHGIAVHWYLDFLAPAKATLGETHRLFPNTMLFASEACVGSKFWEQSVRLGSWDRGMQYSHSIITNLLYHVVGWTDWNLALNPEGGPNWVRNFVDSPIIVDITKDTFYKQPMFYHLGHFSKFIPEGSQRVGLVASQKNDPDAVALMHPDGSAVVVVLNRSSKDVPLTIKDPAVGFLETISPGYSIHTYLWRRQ
Test: GCase activity assay (4-MUG substrate, normalised to crystal violet staining) in L444P GBA fibroblasts
Format: cell-based
Conditions: 5 days exposure; for GBA EC1.5: concentration giving 150% GCase activity (1.5-fold induction), 8-point dose range; for Emax: maximum percent GCase activity relative to untreated cells in the dose range tested
Method: Human fibroblast cell line GM10915 harboring the L444P GBA mutation was obtained from Coriell Biorepositories.
All chemicals (Glacial acetic acid, Glycine, 4-Methylumbelliferyl b-D-glucopyranoside (4-MUG), Sodium acetate trihydrate, Sodium hydroxide, Crystal violet, SDS, Ammonium hydroxide) were obtained from Sigma-Aldrich (Denmark) Compounds tested for GCase activity were dissolved in H2O or DMSO.
The GM10915 cell line was cultured under standard cell culture conditions (37° C. and 5% CO2) in complete DMEM medium supplemented with nonessential amino acids (NEAA), 1% Pen-Strep and 12% FCS. Cells were seeded at a density of 10^4 cells/well in 100 μL complete medium in one black 96-well plate for glucosylceramidase (GCase) activity measurement and in one clear 96-well plate for crystal violet staining to correct for cell density. Crystal violet staining is performed to obtain quantitative information about the relative density of cells adhering to multi-wells plates.
The assay was adapted from Sawkar et al (2002) and briefly described in the following. The day after seeding of cells, the medium was replaced with fresh medium containing the compounds to be tested. Compounds were tested in duplicate and in an 8-point diluted dose range to obtain a dose response. Cells were exposed with compounds for five days. Fresh compound was added every 2-3 days. PBS was included to define the basal level of GCase activity.
Cells were washed three times with 200 μL PBS per well and 50 μL of 2.5 mM 4-MUG buffer (4-MUG dissolved in 0.2 M acetate buffer pH 4.0) was added and the cells were incubated at 37° C., 5% CO2 for 23 hours. The reaction was stopped by adding 150 μL 0.2 M glycine buffer (pH 10.8). Fluorescence was measured with a Varioskan® Flash reader (Thermo Scientific) at an excitation/emission setting of 365/445 nm.
Cells were treated with compounds in a parallel setup identical to the setup to test for GCase activity. At the end of compound treatment, cells were washed once with 200 μL PBS per well and 50 μL 0.1% w/v crystal violet (in H2O) was added. Following 10 min. of incubation, the crystal violet solution was removed, and the cells were washed three times with 200 μL PBS and 100 μL 1% SDS was added to solubilize the stain. The plate was agitated on an orbital shaker for 10-30 min. Absorbance (A) is measured at […] using a Varioskan® Flash reader (Thermo Scientific).
The fluorescence signal (F) derived from the GCase measurement is normalized to the absorbance signal (A) derived from the crystal violet staining. The percent GCase activity resulting from compound treatment is calculated relative to the basal activity obtained from untreated cells.
Maximal effect of compounds (Emax) is determined from the dose response effects as the maximum “Percent GCase activity” achieved in the dose range tested.

Row | GBA EC1.5 [µM] | Emax [%] | SMILES
1 | 36 | 164 | CC1(C2=NOCC(CN3CCCCC3)O2)CCCN1 (racemic) [compound 566, rac-3-(2-methylpyrrolidin-2-yl)-5-(piperidin-1-ylmethyl)-5,6-dihydro-1,4,2-dioxazine]
2 | 6 | 281 | CC1(C2=NOCC(CN3CCCCC3)O2)CCNCC1 (racemic) [compound 568, rac-3-(4-methylpiperidin-4-yl)-5-(piperidin-1-ylmethyl)-5,6-dihydro-1,4,2-dioxazine]
3 | 14 | 188 | C1CCN(CC2CON=C(C3(C4CCOCC4)CCNC3)O2)CC1 (racemic) [compound 583, rac-5-(piperidin-1-ylmethyl)-3-(3-(tetrahydro-2H-pyran-4-yl)pyrrolidin-3-yl)-5,6-dihydro-1,4,2-dioxazine]
4 | 49 | 152 | COCC1(C2=NOCC(CN3CCCCC3)O2)CCNC1 (racemic) [compound 594, rac-3-(3-(methoxymethyl)pyrrolidin-3-yl)-5-(piperidin-1-ylmethyl)-5,6-dihydro-1,4,2-dioxazine]
5 | 6 | 172 | CN1CCCC(C(C)(C)C2=NOCC(CN3CCCCC3)O2)C1 (racemic) [compound 595, rac-3-(2-(1-methylpiperidin-3-yl)propan-2-yl)-5-(piperidin-1-ylmethyl)-5,6-dihydro-1,4,2-dioxazine]
6 | 20 | 292 | COC1(C2=NOCC(CN3CCCCC3)O2)CCNC1 (racemic) [compound 606, rac-3-(3-methoxypyrrolidin-3-yl)-5-(piperidin-1-ylmethyl)-5,6-dihydro-1,4,2-dioxazine]
7 | 26 | 299 | NC1CCC(C2=NOCC(CN3CCCCC3)O2)CC1 (racemic) [compound 611, rac-4-(5-(piperidin-1-ylmethyl)-5,6-dihydro-1,4,2-dioxazin-3-yl)cyclohexan-1-amine]
8 | 6 | 390 | CC1ON=C(C2CCNC2)OC1CN1CCCCC1 (racemic) [compound 616, rac-6-methyl-5-(piperidin-1-ylmethyl)-3-(pyrrolidin-3-yl)-5,6-dihydro-1,4,2-dioxazine]
9 | 10 | 276 | CC1ON=C(C2CCN(C(C)C)C2)OC1CN1CCCCC1 (racemic) [compound 621, rac-3-(1-isopropylpyrrolidin-3-yl)-6-methyl-5-(piperidin-1-ylmethyl)-5,6-dihydro-1,4,2-dioxazine]
10 | 5 | 226 | C[C@@H]1CC(C2=NOCC(CN3CCCCC3)O2)C[C@H](C)N1 (mixture of isomers) [compound 633, rac-3-((2R,6S)-2,6-dimethylpiperidin-4-yl)-5-(piperidin-1-ylmethyl)-5,6-dihydro-1,4,2-dioxazine]
11 | 6 | 183 | CN(C)C12CCC(C3=NOCC(CN4CCCCC4)O3)(CC1)CC2 (racemic) [compound 640, rac-N,N-dimethyl-4-(5-(piperidin-1-ylmethyl)-5,6-dihydro-1,4,2-dioxazin-3-yl)bicyclo[2.2.2]octan-1-amine]
12 | 3 | 275 | C1CCN(CC2CON=C(C34CCN(CC3)C4)O2)CC1 (racemic) [compound 641, rac-3-(1-azabicyclo[2.2.1]heptan-4-yl)-5-(piperidin-1-ylmethyl)-5,6-dihydro-1,4,2-dioxazine]
13 | 18 | 178 | c1cncc(CC2(C3=NOCC(CN4CCCCC4)O3)CCNC2)c1 (racemic) [compound 643, rac-5-(piperidin-1-ylmethyl)-3-(3-(pyridin-3-ylmethyl)pyrrolidin-3-yl)-5,6-dihydro-1,4,2-dioxazine]
14 | 4.3 | 201 | CN1CCCC(C2=NOCC(CN3CCCCC3)O2)C1 (racemic) [compound 648, rac-3-(1-methylpiperidin-3-yl)-5-(piperidin-1-ylmethyl)-5,6-dihydro-1,4,2-dioxazine]
15 | 8 | 232 | c1ncn2c1CC(C1=NOCC(CN3CCCCC3)O1)CC2 (racemic) [compound 655, rac-5-(piperidin-1-ylmethyl)-3-(5,6,7,8-tetrahydroimidazo[1,5-a]pyridin-7-yl)-5,6-dihydro-1,4,2-dioxazine]
16 | 9 | 212 | c1cn2c(n1)CC(C1=NOCC(CN3CCCCC3)O1)CC2 (racemic) [compound 660, rac-5-(piperidin-1-ylmethyl)-3-(5,6,7,8-tetrahydroimidazo[1,2-a]pyridin-7-yl)-5,6-dihydro-1,4,2-dioxazine]
17 | 49 | 151 | CC1(C2=NOCC(CN3CCC(F)(F)CC3)O2)CCNCC1 (racemic) [compound 673, rac-5-((4,4-difluoropiperidin-1-yl)methyl)-3-(4-methylpiperidin-4-yl)-5,6-dihydro-1,4,2-dioxazine]
18 | 20 | 209 | COC1CNCC(C2=NOCC(CN3CCCCC3)O2)C1 (racemic) [compound 680, rac-3-(5-methoxypiperidin-3-yl)-5-(piperidin-1-ylmethyl)-5,6-dihydro-1,4,2-dioxazine]
19 | 12 | 270 | COCCC1(C2=NOCC(CN3CCCCC3)O2)CCNC1 (racemic) [compound 685, rac-3-(3-(2-methoxyethyl)pyrrolidin-3-yl)-5-(piperidin-1-ylmethyl)-5,6-dihydro-1,4,2-dioxazine]
20 | 34 | 152 | CC1(C)CNCC1C1=NOCC(CN2CCCCC2)O1 (racemic) [compound 688, rac-3-(4,4-dimethylpyrrolidin-3-yl)-5-(piperidin-1-ylmethyl)-5,6-dihydro-1,4,2-dioxazine]
21 | 25 | 205 | COC1CNCCC1C1=NOCC(CN2CCCCC2)O1 (racemic) [compound 690, rac-3-(3-methoxypiperidin-4-yl)-5-(piperidin-1-ylmethyl)-5,6-dihydro-1,4,2-dioxazine]
22 | 25 | 252 | CC(N)C(=O)N1CCC(C2=NOCC(CN3CCCCC3)O2)C1 (racemic) [compound 691, rac-2-amino-1-(3-(5-(piperidin-1-ylmethyl)-5,6-dihydro-1,4,2-dioxazin-3-yl)pyrrolidin-1-yl)propan-1-one]
23 | 38 | 203 | NCC(=O)N1CCC(C2=NOCC(CN3CCCCC3)O2)C1 (racemic) [compound 699, rac-2-amino-1-(3-(5-(piperidin-1-ylmethyl)-5,6-dihydro-1,4,2-dioxazin-3-yl)pyrrolidin-1-yl)ethan-1-one]
24 | 15 | 270 | COC1CCN(C)CC1C1=NOCC(CN2CCCCC2)O1 (racemic) [compound 700, rac-3-(4-methoxy-1-methylpiperidin-3-yl)-5-(piperidin-1-ylmethyl)-5,6-dihydro-1,4,2-dioxazine]

Row | SMILES | GBA EC1.5 [µM] | Emax [%]
25 | C1CCN(CC2CON=C(C34CCN(CC3)CC4)O2)CC1 (racemic) [compound 642, rac-5-(piperidin-1-ylmethyl)-3-(quinuclidin-4-yl)-5,6-dihydro-1,4,2-dioxazine] | 3 | 282
26 | C1CCN(CC2CON=C(C3CN4CCC3CC4)O2)CC1 (racemic) [compound 644, rac-5-(piperidin-1-ylmethyl)-3-(quinuclidin-3-yl)-5,6-dihydro-1,4,2-dioxazine] | 5 | 264
